The values below are quoted from earlier work in patent US6680306B2, “Method for enhancing the effectiveness of cancer therapies” (GlycoGenesys, Inc., priority 2001, dated 2004).

Data set [1] concerns BT549 cells. Conditions: BT549 human breast epithelial cell line that does not express detectable levels of galectin-3.
Data set [2] deals with galectin-3 transfected BT549 cells. To be noted: galectin-3 transfected BT549 cells treated with genistein.

Molecules are shown by their SMILES.

Regarding `O=c1c(-c2ccc(O)cc2)coc2cc(O)cc(O)c12` [genistein], the apoptosis induction entry in data set [1] was “effectively induces apoptosis, without detectable cell cycle arrest”. The “cell cycle arrest / apoptosis induction” value in data set [2] was “cell cycle arrest at the G(2)/M phase takes place without apoptosis induction”.
